# Results published in patent publication US7091207B2, “Method of treating myocardial infarction with PDE-5 inhibitors” (Virginia Commonwealth University, priority 2002, dated 2006).
# “And” between values parts separate entries of the source, which are not always exact repeats. Identical values can stand only once. Marks after values point to notes of the source that are not given here.
# Tests used:
# [1] = tested on: nNOS, iNOS and eNOS knockout mouse hearts; experiment: Delayed cardioprotection in NOS gene-knockout mice, isolated perfused heart, 30 min global ischemia and 60 min reperfusion; assay type: in vivo; settings: iNOS-KO mice
# [2] = tested on: rabbit heart, ischemia/reperfusion injury; experiment: In situ rabbit model of myocardial infarction (30 min coronary occlusion, 180 min reperfusion), infarct size by TTC staining; assay type: in vivo; settings: for reduction of infarct size vs saline control: 0.7 mg/kg IV
# [3] = tested on: mouse heart, global I-R injury; experiment: Isolated perfused mouse heart (Langendorff), 20 min global ischemia and 30 min reperfusion after in vivo treatment
# Protocol: Adult male outbred ICR mice were supplied by Harlan Inc (Indianapolis, Ind.). Viagra pills (Pfizer Inc) were ground into powder and dissolved in saline. The drug solution was filtered (0.45-μm pore size) before intraperitoneal injection. 1400W, an iNOS inhibitor, was obtained from Alexis. We used an isolated perfused mouse heart model subjected to 20 minutes of global ischemia and 30 minutes of reperfusion (Langendorff mode). Myocardial I-R injury was assessed by measuring infarct size, contractile function, and coronary flow as described previously (Xi, 1999). Twenty-eight mice were randomized into the following 4 groups: (n=6 to 9 per group): (1) saline (0.15 mL IP), (2) sildenafil (0.7 mg/kg IP, equivalent to 50 mg Viagra pill used for patients with erectile dysfunction, given 24 hours before I-R), (3) sildenafil+1400W (10 mg/kg IP, 14 given 30 minutes before I-R), and (4) saline+1400W. Measurement of NOS Isoforms Mice were treated with sildenafil (0.7 mg/kg IP), and their hearts were removed at 15, 30, and 45 minutes and 1, 2, 3, 4, and 24 hours after injection (n=3 per group). Three nontreated hearts were used as controls. Tissue samples were ground under liquid nitrogen and homogenized with TRI Reagent (Molecular Research Center) for extracting total RNA, which was reverse-transcribed into cDNA at 50° C. for 30 minutes using a OneStep reverse transcription (RT)-polymerase chain reaction (PCR) kit from Qiagen. The oligonucleotide primers were synthesized on the basis of published sequences for murine iNOS, eNOS, and GAPDH15 (Integrated DNA Technology). The RT-PCR products were electrophoresed on 1.5% Trisacetate-EDTA agarose gel. The target bands were identified on the basis of their specific size using DNA standards. iNOS and eNOS proteins were measured by Western blots as described previously. 13 In brief, triplicate heart samples were collected 24 hours after saline or sildenafil injection and homogenized in ice-cold RIPA buffer (Upstate Biotechnology). The homogenate was centrifuged at 10,000 g for 10 minutes at 4° C., and supernatant was recovered as the total cellular protein. Total protein (60 μg) from each sample was separated by SDS-PAGE on 10% acrylamide gels, transferred to a polyvinylidine difluoride membrane, and then blocked with 5% nonfat dry milk in Tris-buffered saline. The membrane was subsequently incubated with a rabbit polyclonal antibody (dilution 1:500, Santa Cruz) reacting specifically to iNOS, eNOS, or actin. The secondary antibody was a horseradish peroxidase-conjugated anti-rabbit IgG (1:1000 dilution, Amersham). The membranes were developed using enhanced chemiluminescence and exposed to x-ray film. The mRNA and protein expression were quantified by scanning each of the RT-PCR or Western blot band using a densitometer (Bioquant 98). […]
# [4] = Systemic hemodynamics (blood pressure, heart rate, rate pressure product) in rabbits; assay type: in vivo, rabbit
# [5] = 0.7 mg/kg IP 24 hours before I-R
# [6] = oral 1.4 mg/kg, after 30 minutes
# [7] = oral sildenafil citrate 1.4 mg/kg, Acute, 30-min Ischemia
# [8] = oral sildenafil citrate 1.4 mg/kg, Acute, 60-min Reperfusion
# [9] = oral sildenafil citrate 1.4 mg/kg, Acute, 80-min Reperfusion
# [10] = oral sildenafil citrate 1.4 mg/kg, Acute, 120-min Reperfusion
# [11] = oral sildenafil citrate 1.4 mg/kg, Acute, Baseline
# [12] = oral sildenafil citrate 1.4 mg/kg, Acute, Preischemia
# [13] = oral sildenafil citrate 1.4 mg/kg, Delayed, 30-min Ischemia
# [14] = oral sildenafil citrate 1.4 mg/kg, Delayed, 60-min Reperfusion
# [15] = oral sildenafil citrate 1.4 mg/kg, Delayed, 80-min Reperfusion
# [16] = oral sildenafil citrate 1.4 mg/kg, Delayed, 120-min Reperfusion
# [17] = oral sildenafil citrate 1.4 mg/kg, Delayed, Baseline
# [18] = oral sildenafil citrate 1.4 mg/kg, Delayed, Preischemia
# [19] = sildenafil 0.7 mg/kg IV, acute phase, 30-min Ischemia
# [20] = sildenafil 0.7 mg/kg IV, acute phase, Baseline
# [21] = sildenafil 0.7 mg/kg IV, acute phase, Preischemia
# [22] = sildenafil 0.7 mg/kg IV, acute phase, Reperfusion (60 min)
# [23] = sildenafil 0.7 mg/kg IV, acute phase, Reperfusion (120 min)
# [24] = sildenafil 0.7 mg/kg IV, acute phase, Reperfusion (180 min)
# [25] = sildenafil 0.7 mg/kg IV, delayed phase, 30-min Ischemia
# [26] = sildenafil 0.7 mg/kg IV, delayed phase, Baseline
# [27] = sildenafil 0.7 mg/kg IV, delayed phase, Preischemia
# [28] = sildenafil 0.7 mg/kg IV, delayed phase, Reperfusion (60 min)
# [29] = sildenafil 0.7 mg/kg IV, delayed phase, Reperfusion (120 min)
# [30] = sildenafil 0.7 mg/kg IV, delayed phase, Reperfusion (180 min)
# [31] = sildenafil citrate 0.7 mg/kg intravenous, within 2 minutes
structure (smiles),measurement,setting,value
CCCc1nn(C)c2c(=O)[nH]c(-c3cc(S(=O)(=O)N4CCN(C)CC4)ccc3OCC)nc12 [sildenafil],delayed cardioprotection,[1],absent
same,infarct size,"[2]; 0.1 mg/kg, 30 minutes prior to ischemia",17.05%
same,infarct size,"[2]; 0.2 mg/kg, 30 minutes prior to ischemia",13.53±1.24
same,infarct limiting effect at lower doses (0.2 and 0.1 mg/kg) versus the 0.7 mg/kg dose,[2]; 30 minutes prior to ischemia,comparable
same,reduction of infarct size vs saline control,"[2]; acute phase, 0.7 mg/kg",68% and 67%
same,infarct size,[2]; acute phase: sildenafil 0.7 mg/kg IV 30 min prior to ischemia/reperfusion,10.8±0.9 % of risk area
same,reduction of infarct size vs saline control,[2]; delayed phase,41%
same,infarct size,[2]; delayed phase: sildenafil 0.7 mg/kg IV 24 hrs prior to ischemia/reperfusion,19.9±2.0 % of risk area
same,infarct size,"[2]; total dose 0.7 mg/kg infused from 25 min of ischemia into reperfusion for 1 hr, 0.7 mg/kg",18.37±2.42
same,infarct size,"[2]; total dose 0.7 mg/kg infused from 25 min of ischemia into reperfusion for 1 hr, listed as Sildenafil, 0.7 mg/kg",significant reduction in the infarct size
same,preischemic or postischemic coronary flow,[3]; [5],did not alter
same,ventricular contractile function (stunning),[3]; [5],not associated with compromised ventricular contractile function
same,infarct size,[3]; sildenafil 0.7 mg/kg IP 24 hours before I-R,6.9±1.2%
same,changes in heart rate,[4]; 0.7 mg/kg intravenous,No significant changes in heart rate
same,time until systemic hemodynamics returned to nearly baseline levels,[4]; 0.7 mg/kg intravenous,≤ 5 min
same,changes in heart rate,[4]; oral 1.4 mg/kg,No changes in heart rate
same,decrease in diastolic pressure,[4]; [6],~12.5%
same,decrease in mean arterial pressure,[4]; [6],~10.3%
same,decrease in systolic pressure,[4]; [6],approximately 9.2%
same,hypotensive response,"[4]; oral 1.4 mg/kg, at 60 minutes",remained significant
same,HR,[4]; [7],216 ± 18 beats/min
same,MAP,[4]; [7],96 ± 6 mmHg
same,RPP (systolic arterial pressure x HR),[4]; [7],23137 ± 1617
same,HR,[4]; [8],205 ± 14 beats/min
same,MAP,[4]; [8],89 ± 0.4 mmHg
same,RPP (systolic arterial pressure x HR),[4]; [8],21647 ± 2274
same,HR,[4]; [9],187 ± 9 beats/min
same,MAP,[4]; [9],81 ± 5c mmHg
same,RPP (systolic arterial pressure x HR),[4]; [9],18555 ± 1336
same,HR,[4]; [10],187 ± 9 beats/min
same,MAP,[4]; [10],82 ± 5c mmHg
same,RPP (systolic arterial pressure x HR),[4]; [10],17738 ± 860c
same,HR,[4]; [11],216 ± 5 beats/min
same,MAP,[4]; [11],100 ± 2a mmHg
same,RPP (systolic arterial pressure x HR),[4]; [11],24859 ± 239
same,HR,[4]; [12],210 ± 20 beats/min
same,MAP,[4]; [12],95 ± 3 mmHg
same,RPP (systolic arterial pressure x HR),[4]; [12],22848 ± 2027
same,HR,[4]; [13],190 ± 18 beats/min
same,MAP,[4]; [13],104 ± 5 mmHg
same,RPP (systolic arterial pressure x HR),[4]; [13],22089 ± 2288
same,HR,[4]; [14],185 ± 14 beats/min
same,MAP,[4]; [14],103 ± 8 mmHg
same,RPP (systolic arterial pressure x HR),[4]; [14],20955 ± 1469
same,HR,[4]; [15],173 ± 16 beats/min
same,MAP,[4]; [15],94 ± 8 mmHg
same,RPP (systolic arterial pressure x HR),[4]; [15],18838 ± 1913
same,HR,[4]; [16],171 ± 15 beats/min
same,MAP,[4]; [16],94 ± 8 mmHg
same,RPP (systolic arterial pressure x HR),[4]; [16],17692 ± 978
same,HR,[4]; [17],187 ± 15 beats/min
same,MAP,[4]; [17],109 ± 3 mmHg
same,RPP (systolic arterial pressure x HR),[4]; [17],22626 ± 2173
same,HR,[4]; [18],193 ± 7 beats/min
same,MAP,[4]; [18],99 ± 3 mmHg
same,RPP (systolic arterial pressure x HR),[4]; [18],21938 ± 989
same,HR,[4]; [19],208 ± 11 beats/min
same,MAP,[4]; [19],76 ± 7 mmHg
same,RPP (systolic arterial pressure × HR),[4]; [19],"17,728 ± 1441"
same,HR,[4]; [20],247 ± 20 beats/min
same,MAP,[4]; [20],77 ± 4^f mmHg
same,RPP (systolic arterial pressure × HR),[4]; [20],"21,988 ± 2129"
same,HR,[4]; [21],204 ± 8 beats/min
same,MAP,[4]; [21],81 ± 6^f mmHg
same,RPP (systolic arterial pressure × HR),[4]; [21],"18,132 ± 999"
same,HR,[4]; [22],201 ± 14 beats/min
same,MAP,[4]; [22],76 ± 5^f mmHg
same,RPP (systolic arterial pressure × HR),[4]; [22],16748 ± 1425
same,HR,[4]; [23],177 ± 11^a beats/min
same,MAP,[4]; [23],74 ± 5^f mmHg
same,RPP (systolic arterial pressure × HR),[4]; [23],14909 ± 1289^a
same,HR,[4]; [24],158 ± 12^a beats/min
same,MAP,[4]; [24],73 ± 5^f mmHg
same,RPP (systolic arterial pressure × HR),[4]; [24],"12,967 ± 1115^a"
same,HR,[4]; [25],189 ± 8^a beats/min
same,MAP,[4]; [25],73 ± 9 mmHg
same,RPP (systolic arterial pressure × HR),[4]; [25],"15,395 ± 1784"
same,HR,[4]; [26],229 ± 14 beats/min
same,MAP,[4]; [26],76 ± 5^f mmHg
same,RPP (systolic arterial pressure × HR),[4]; [26],"19,692 ± 1528"
same,HR,[4]; [27],215 ± 8 beats/min
same,MAP,[4]; [27],71 ± 5^f mmHg
same,RPP (systolic arterial pressure × HR),[4]; [27],"17,764 ± 1174"
same,HR,[4]; [28],"179 ± 8^a,b beats/min"
same,MAP,[4]; [28],74 ± 9^f mmHg
same,RPP (systolic arterial pressure × HR),[4]; [28],"15,086 ± 1989"
same,HR,[4]; [29],"170 ± 8^a,b beats/min"
same,MAP,[4]; [29],73 ± 5^f mmHg
same,RPP (systolic arterial pressure × HR),[4]; [29],"13,477 ± 1285^a"
same,HR,[4]; [30],"164 ± 11^a,b beats/min"
same,MAP,[4]; [30],68 ± 3^f mmHg
same,RPP (systolic arterial pressure × HR),[4]; [30],"12,196 ± 1088^a"
same,decline in diastolic pressure,[4]; [31],47.3%
same,decline in mean arterial pressure,[4]; [31],38.8%
same,decline in systolic pressure,[4]; [31],24.5%
